Biological target: T1, XCR1 (Homo sapiens, UniProt P46094)
T1 construct: purchased Promega (in-house HiBiT-GPCR construct library, NanoBRET)
T1 sequence (P46094 1-333): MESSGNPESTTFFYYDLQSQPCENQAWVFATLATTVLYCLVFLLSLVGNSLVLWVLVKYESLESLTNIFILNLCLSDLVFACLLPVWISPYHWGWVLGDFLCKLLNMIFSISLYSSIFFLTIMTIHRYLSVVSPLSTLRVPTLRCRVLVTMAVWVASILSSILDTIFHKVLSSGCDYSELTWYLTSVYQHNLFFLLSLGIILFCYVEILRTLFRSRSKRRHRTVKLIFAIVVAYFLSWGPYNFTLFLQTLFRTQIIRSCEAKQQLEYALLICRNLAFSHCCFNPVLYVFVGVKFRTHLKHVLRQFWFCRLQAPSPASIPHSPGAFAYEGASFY
Assay: NanoBRET screen HiBiT-XCR1 in HEK293
Format: binding
Procedure: Each tracer candidate was screened across the entire library of HiBiT-GPCR constructs using NanoBRET as the detection modality. As depicted in Figure 4A, the specificity of interactions was evaluated through decrease in BRET due to competitive displacement of a bound tracer by excess parental compound. Each tracer was analyzed for binding to each HiBiT-GPCR fusion in the absence and in the presence of competing parental compound. Briefly, HEK293 cells were transfected with HiBiT-GPCR constructs diluted into promoterless DNA to reduce expression and maximize translocation to the cell surface. Each tracer candidate was then screened at concentrations of 1 μM and 0.1 μM across cells expressing these fusions. Cells were treated for 1.5 h with tracer either alone or in the presence of 20 μM competing parental compound (i.e., control). BRET was measured upon addition of purified LgBiT and subsequent complementation with HiBiT genetically fused to a GPCR. The specificity of interactions was assessed through a decrease in BRET signal due to competitive displacement of the bound tracer. To further gauge the robustness of these interactions, the fold response over the control (i.e., BRETtracer/BRETcontrol) was calculated. We chose a 1.5-fold response, which translates to ≥7-fold signal over noise as the minimal threshold required to score an interaction as positive. […]. Below we highlight the screening results obtained for our exemplary fluorescent tracers based on Clozapine, Amitriptyline and AZD1283.
HiBiT-GPCR DNA constructs were diluted in 10 mM Tris pH 8 to a final concentration of 0.01 μg/μL, arrayed in 96-well plates and stored at −20 °C. For transfection, HEK293 cells were suspended in Opti-MEM (without phenol red) supplemented with 2% fetal bovine serum (Seradigm) and 100 units/mL penicillin–streptomycin (Gibco) at a final concentration of 220,000 cells/mL and dispensed into white 96-well plates at 90 μL/well. Subsequent transfections and screens were carried using an Agilent Bravo Automated Liquid Handling Platform. First, the 96-well HiBiT DNA arrays were diluted 25-fold in Opti-MEM (without serum or phenol red) to a final concentration of 0.0004 μg/μL and 20 μL of the diluted DNAs were transferred into new 96-well plates. Next, promoterless carrier DNA (1 μg/μL) was diluted 25-fold (0.04 μg/μL) and then dispensed into the diluted arrays at 20 μL/well. Following brief mixing, Viafect transfection reagent (Promega) diluted 16-fold into Opti-MEM was dispensed into the plates at 40 μL/well. After mixing by pipetting, plates were incubated for 10 min on the pipetting station deck. The DNA-transfection reagent complexes were then added to plates containing cells. To facilitate the screen, 10 μL of DNA-transfection reagent complexes were added in duplicates to the top 4 and bottom 4 rows, resulting in two identical 48-well arrays per plate. Plates with transfected cells were incubated for 18–20 h at 37 °C/5% CO2. A screen of each tracer across the entire library using two different concentrations requires duplicate plates of transfected cells. Depending on the number of tracers being screened, transfections can be scaled up using the same ratios. The next day, for each tracer, four 20× screening solutions in tracer dilution buffer (Promega) were prepared: two duplicates at final concentration of 20 μM and two duplicates at a final concentration of 2 μM. A competing unmodified compound was added to one of each duplicate at a final concentration of 400 μM. The four resulting solutions were diluted 4-fold in Opti-MEM without serum or phenol red to generate 5× solutions (5 µM and 0.5 µM tracer +/− 100 μM competing compound). To screen the library, a BioTek MultiFlo FX liquid dispenser was used to dispense 22.5 µL of tracer solution to the top 4 rows and 22.5 µL tracer + competing compound solution to the 4 bottom rows. Plates were briefly mixed on an orbital shaker and incubated for 1.5 h at room temperature. […]

Row | SMILES | NanoBRET Fold Response (XCR1, tracer 0.1μM) | NanoBRET Fold Response (XCR1, tracer 1μM) | other results
1 | CCOC(=O)c1cc(C#N)c(N2CCC(C(=O)NS(=O)(=O)Cc3ccccc3/C=C/C(=O)NCCNC(=O)CCc3ccc4n3[B-](F)(F)[N+]3=C(c5ccc[nH]5)C=CC3=C4)CC2)nc1C [AZD1283-1-NB590] |  |  | NanoBRET Fold Response (XCR1, 0.1μM): 1.04; NanoBRET Fold Response (XCR1, 1μM): 1.00
2 | N#CN=C(NCCCOc1cccc(CN2CCCCC2)c1)NCCNC(=O)CCOCCOCCOCCOCCNC(=O)CCc1ccc2n1[B-](F)(F)[N+]1=C(c3ccc[nH]3)C=CC1=C2 [Aminopotentidine-2-NB590] | 1.11 | 0.87 | 
3 | CN(C)CCC=C1c2ccccc2CCc2ccc(C(=O)NCCNC(=O)CCOCCOCCOCCOCCNC(=O)CCc3ccc4n3[B-](F)(F)[N+]3=C(c5ccc[nH]5)C=CC3=C4)cc21 [Amitriptyline-a-2-NB590] |  |  | NanoBRET Fold Response (tracer at 0.1μM): 1.05; NanoBRET Fold Response (tracer at 1μM): 0.96
4 | CN(C)CCC=C1c2ccccc2CCc2ccc(C(=O)NCCNC(=O)CCOCCOCCOCCOCCNC(=O)CCc3ccc4n3[B-](F)(F)[N+]3=C(c5ccc[nH]5)C=CC3=C4)cc21 [Amitriptyline-b-2-NB590] |  |  | NanoBRET Fold Response (tracer at 0.1μM, listed as amitriptyline-b-2-NB590): 0.92; NanoBRET Fold Response (tracer at 1μM, listed as amitriptyline-b-2-NB590): 0.83
5 | CN(CCC=C1c2ccccc2CCc2ccccc21)C(=O)CCOCCOCCOCCOCCNC(=O)CCc1ccc2n1[B-](F)(F)[N+]1=C(c3ccc[nH]3)C=CC1=C2 [Amitriptyline-e-2-NB590] |  |  | NanoBRET Fold Response (tracer at 1μM): 0.99
6 | COc1ccc2c(n1)c(CCNC(C)=O)cn2CCNC(=O)CCc1ccc2n1[B-](F)(F)[N+]1=C(c3ccc[nH]3)C=CC1=C2 [Azamelatonin-1-NB590] |  |  | NanoBRET Fold Response (0.1μM tracer): 1.33; NanoBRET Fold Response (1μM tracer): 1.18
7 | COc1ccc2[nH]c(-c3ccc(CNC(=O)CCOCCOCCOCCOCCNC(=O)CCc4ccc5n4[B-](F)(F)[N+]4=C(c6ccc[nH]6)C=CC4=C5)cc3)c(CCNC(C)=O)c2n1 [AzomelatoninICO9-2-NB590] |  |  | NanoBRET Fold Response (0.1μM tracer): 0.42; NanoBRET Fold Response (1μM tracer): 0.90
8 | O=C(CCOCCOCCOCCOCCNC(=O)CCc1ccc2n1[B-](F)(F)[N+]1=C(c3ccc[nH]3)C=CC1=C2)NCCCN1CCN(C2=Nc3cc(Cl)ccc3Nc3ccccc32)CC1 [Clozapine-a-2-NB590] |  |  | NanoBRET Fold Response (XCR1, 0.1μM tracer): 1.01; NanoBRET Fold Response (XCR1, 1μM tracer): 0.98
9 | CN1CCN(C2=Nc3cc(Cl)ccc3Nc3ccc(CNC(=O)CCOCCOCCOCCOCCNC(=O)CCc4ccc5n4[B-](F)(F)[N+]4=C(c6ccc[nH]6)C=CC4=C5)cc32)CC1 [Clozapine-b-2-NB590] |  |  | NanoBRET Fold Response (XCR1, 0.1μM tracer): 0.94; NanoBRET Fold Response (XCR1, 1μM tracer): 1.18
10 | CN1CCN(C2=Nc3cc(Cl)ccc3N(CC(=O)NCCOCCOCCOCCOCCNC(=O)CCc3ccc4n3[B-](F)(F)[N+]3=C(c5ccc[nH]5)C=CC3=C4)c3ccccc32)CC1 [Clozapine-c-2-NB590] |  |  | NanoBRET Fold Response (XCR1, 0.1μM tracer): 0.99; NanoBRET Fold Response (XCR1, 1μM tracer): 1.03
11 | O=C(CCOCCOCCOCCOCCNC(=O)CCc1ccc2n1[B-](F)(F)[N+]1=C(c3ccc[nH]3)C=CC1=C2)NCCCN1CCN(C2=Nc3ccccc3Oc3ccc(Cl)cc32)CC1 [Loxapine-a-2-NB590] | 0.44 | 0.91 | 
12 | COc1ccccc1N1CCN(CCCCN2C(=O)c3ccc(CNC(=O)CCOCCOCCOCCOCCNC(=O)CCc4ccc5n4[B-](F)(F)[N+]4=C(c6ccc[nH]6)C=CC4=C5)cc3C2=O)CC1 [NAN-190-2-NB590] | 1.44 |  | 
13 | COc1ccccc1N1CCN(CCCCN2C(=O)c3ccc(CNC(=O)CCOCCNC(=O)c4ccc(CNC(=O)CCc5ccc6n5[B-](F)(F)[N+]5=C(c7ccc[nH]7)C=CC5=C6)cc4)cc3C2=O)CC1 [NAN-190-3-NB590] | 1.29 | 1.34 | 
14 | O=C(CCc1ccc2n1[B-](F)(F)[N+]1=C(c3ccc[nH]3)C=CC1=C2)NCc1ccc(C(=O)NCCOCCC(=O)N[C@@H]2CC[C@@]3(O)[C@H]4Cc5ccc(O)c6c5[C@@]3(CCN4CC3CC3)[C@H]2O6)cc1 [Naltrexone-3-NB590] | 0.97 | 0.61 | 
15 | Cc1cc2c(s1)Nc1ccccc1N=C2N1CCN(CCCNC(=O)CCOCCOCCOCCOCCNC(=O)CCc2ccc3n2[B-](F)(F)[N+]2=C(c4ccc[nH]4)C=CC2=C3)CC1 [Olanzapine-a-2-NB590] | 0.88 | 1.27 | 
16 | O=C(CCc1ccc2n1[B-](F)(F)[N+]1=C(c3ccc[nH]3)C=CC1=C2)NCc1ccc(C(=O)NCCOCCOCCNCC(O)COc2cccc3ccccc23)cc1 (stereo not shown) [Propranolol-3-NB590] |  |  | NanoBRET Fold Response (XCR1, 0.1μM): 1.02; NanoBRET Fold Response (XCR1, 1μM): 0.97
17 | O=C(CCc1ccc2n1[B-](F)(F)[N+]1=C(c3ccc[nH]3)C=CC1=C2)NCCOCCOCCNC(=O)OCCOCCN1CCN(C2=Nc3ccccc3Sc3ccccc32)CC1 [Quetiapine-a-2-NB590] | 1.07 | 1.04 | 
18 | Cc1nc2n(c(=O)c1CCN1CCC(c3noc4cc(F)ccc34)CC1)CCCC2OC(=O)NCCOCCOCCOCCOCCNC(=O)CCc1ccc2n1[B-](F)(F)[N+]1=C(c3ccc[nH]3)C=CC1=C2 (stereo not shown) [Risperidone-2-NB590] | 0.97 | 0.88 | 
19 | CC(C)N(CC[C@H](c1ccccc1)c1cc(CCNC(=O)CCOCCOCCOCCOCCNC(=O)CCc2ccc3n2[B-](F)(F)[N+]2=C(c4ccc[nH]4)C=CC2=C3)ccc1O)C(C)C [Tolterodine-2-NB590] | 0.81 | 1.17 | 
20 | CC(C)N(CC[C@H](c1ccccc1)c1cc(CCNC(=O)c2ccc(CNC(=O)CCc3ccc4n3[B-](F)(F)[N+]3=C(c5ccc[nH]5)C=CC3=C4)cc2)ccc1O)C(C)C [Tolterodine-BZ-NB590] | 0.80 | 0.95 | 
21 | CCCn1c(=O)c2[nH]c(-c3ccc(OCC(=O)NCCNC(=O)CCOCCNC(=O)c4ccc(CNC(=O)CCc5ccc6n5[B-](F)(F)[N+]5=C(c7ccc[nH]7)C=CC5=C6)cc4)cc3)nc2n(CCC)c1=O [XAC-3-NB590] | 0.87 | 0.98 | 
